Measured values: article PMC5651844, “YEATS2 links histone acetylation to tumorigenesis of non-small cell lung cancer” (Nature Communications, 2017)
pKd: −log10 of the molar value. Where “and” joins values, the source holds several entries; their conditions need not be identical. Identical values can stand only once. Entries after “also recorded” stand apart in the source; their conditions may differ. Ends that are not written are not given here.

What was measured:
[1] = target: T1, YEATS2 YEATS domain (aa 201–332), wild type (Homo sapiens, UniProt Q9ULM3); test: Isothermal titration calorimetry (ITC), wild-type YEATS domain; format: binding; conditions: for binding in ITC, in words: WT YEATS2 YEATS domain
T1 construct: encompassing residues 201–332 of human YEATS2; 10×His-SUMO (N, cleaved yes); made in house; host or cells: Escherichia coli BL21 (DE3)
T1 sequence (Q9ULM3 201-332): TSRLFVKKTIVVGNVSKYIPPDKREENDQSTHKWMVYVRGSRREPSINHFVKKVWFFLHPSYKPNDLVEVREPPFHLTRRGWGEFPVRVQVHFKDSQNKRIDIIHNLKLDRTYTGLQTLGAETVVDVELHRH
Description: The YEATS2 domain encompassing residues 201–332 of human YEATS2 was cloned into a pSUMOH10 vector (an in house modified vector based on pET28b) containing an N-terminal 10×His-SUMO tag. The recombinant YEATS2_201–332 was overexpressed in Escherichia coli BL21 (DE3). After overnight induction by 0.4 mM isopropyl β-D-thiogalactoside at 16 °C in TB medium, cells were collected and suspended in buffer: 20 mM Tris, pH 7.5, 0.5 M sodium citrate, 5% glycerol, 1 mM phenylmethylsulfonyl fluoride, and 20 mM imidazole. After cell lysis and centrifugation, the recombinant protein was purified to homogeneity over HisTrap, and the 10xHis-SUMO tag was cleaved by ULP1 overnight at 4 °C then removed by reloaded onto the HisTrap column. The free YEATS2_201–332 protein was finally polished by size-exclusion chromatography on a Superdex G75 column (GE Healthcare) in elution buffer: 20 mM Tris, pH 7.5, 0.5 M sodium citrate, 5% glycerol, and 2 mM β-mercaptoethanol. All YEATS2_201–332 mutants were purified in essentially the same procedures as the wild-type protein. All mutant proteins were expressed and purified essentially the same as WT YEATS2 YEATS. […] Cells were pelleted via centrifugation, flash-frozen in liquid nitrogen, and lysed by sonication. Cell lysate was centrifuged, and the supernatant was incubated with glutathione Sepharose 4B beads (GE Healthcare). The GST tag was cleaved with Prescission protease.
All calorimetric experiments of the wild type or mutant YEATS domain proteins were conducted at 15 °C using a MicroCal iTC200 instrument (GE Healthcare). The YEATS2_201–332 samples were dialyzed in the following buffer: 20 mM Tris 7.5, 0.5 M sodium citrate, 5% glycerol, and 2 mM β-mercaptoethanol. Protein concentration was determined by absorbance spectroscopy at 280 nm. Peptides (>95% purity) were quantified by weighing on a large scale and then aliquoted and freeze-dried for individual use. Acquired calorimetric titration curves were analyzed using Origin 7.0 (OriginLab) using the “One Set of Binding Sites” fitting model.

GST-YEATS2 YEATS domain = test: Histone peptide pulldown, western blot; format: binding, human; conditions: 1 µg biotinylated peptide, 1–2 µg GST-fused protein, 4 °C overnight, streptavidin beads
Description: An aliquot of 1 µg of biotinylated histone peptides with different modifications were incubated with 1–2 µg of GST-fused proteins in binding buffer (50 mM Tris-HCl 7.5, 250 mM NaCl, 0.1% NP-40, 1 mM phenylmethyl sulphonyl fluoride (PMSF)) at 4 °C overnight. Streptavidin beads (Amersham) were added to the mixture, and the mixture was incubated for 1 h with rotation. The beads were then washed three times and analyzed using SDS-PAGE and western blotting. For GST pulldown, 2 µg protein were incubated with 10 µg of calf thymus total histones (Worthington) in binding buffer (50 mM Tris-HCl 7.5, 1 M NaCl, 1% NP-40, 0.5 mM EDTA, 1 mM PMSF plus protease inhibitors (Roche)) at 4 °C overnight, followed by an additional 1 h Glutathione Sepharose beads (Amersham) incubation. The beads were then washed five times and analyzed using SDS-PAGE and western blotting.

AF9 YEATS domain = conditions: ref Li et al., 2014; cited from earlier work
[2] = test system: 15N-labeled YEATS domain of YEATS2 (aa 201–350); test: NMR titration, 1H,15N HSQC; format: binding, human; conditions: 0.1 mM 15N-labeled YEATS domain, 1× PBS pH 6.8, 100 mM KCl, 298 K, increasing peptide (H3K27ac21–31 or H3K9ac1–12)
Description: The YEATS2 domain encompassing residues 201–332 of human YEATS2 was cloned into a pSUMOH10 vector (an in house modified vector based on pET28b) containing an N-terminal 10×His-SUMO tag. The recombinant YEATS2_201–332 was overexpressed in Escherichia coli BL21 (DE3). After overnight induction by 0.4 mM isopropyl β-D-thiogalactoside at 16 °C in TB medium, cells were collected and suspended in buffer: 20 mM Tris, pH 7.5, 0.5 M sodium citrate, 5% glycerol, 1 mM phenylmethylsulfonyl fluoride, and 20 mM imidazole. After cell lysis and centrifugation, the recombinant protein was purified to homogeneity over HisTrap, and the 10xHis-SUMO tag was cleaved by ULP1 overnight at 4 °C then removed by reloaded onto the HisTrap column. The free YEATS2_201–332 protein was finally polished by size-exclusion chromatography on a Superdex G75 column (GE Healthcare) in elution buffer: 20 mM Tris, pH 7.5, 0.5 M sodium citrate, 5% glycerol, and 2 mM β-mercaptoethanol. All YEATS2_201–332 mutants were purified in essentially the same procedures as the wild-type protein. All mutant proteins were expressed and purified essentially the same as WT YEATS2 YEATS. For NMR titrations, the YEATS domain (aa 201–350) of YEATS2 was expressed in BL21(DE3) RIL cells as a GST-fusion protein in minimal media supplemented with ^15NH4Cl (Sigma). […]

ENL YEATS domain = conditions: ref Wan et al., 2017; cited from earlier work

Substance | binding in ITC, in words ([1]; listed as H3K14ac) | binding in histone peptide pulldown (GST-YEATS2 YEATS domain) | pKd (AF9 YEATS domain) | chemical shift perturbations in 1H,15N HSQC spectra [2] | pKd (ENL YEATS domain) | binding in ITC, in words [1] | pKd ([1]; main text and Fig. 3e, ITC at 15 °C, N.D. = not detected, read-out: dissociation constant (KD))
TARKSTGGK(ac)A [H36-15K14ac, histone H3 peptide, residues 6-15, acetylated at K14] | weak or no binding; also recorded: no detectable binding |  |  |  |  |  | 
H3K27ac: K27-acetylated H3 peptide: ITC text = H3 15–39K27ac; NMR = H3K27ac21–31; pulldown = biotinylated peptide; cited AF9/ENL peptides unspecified (ATKAARK(Ac)SAPA) |  | bound specifically | ~5.15 and 5.15 | global chemical shift perturbations | 4.52 | best binding substrate | 4.30
